Patent publication EP3255116A1, “COMPOSITIONS COMPRISING A FLUOROOLEFIN” (The Chemours Company FC, LLC, priority 2005, dated 2006)

How the values were obtained:
[1] = Kinematic viscosity of lactone compatibilizers; format: physicochemical; conditions: at 40°C
Experimental: Lactone compatibilizers generally have a kinematic viscosity of less than about 7 centistokes at 40°C. […] Lactone compatibilizers may be available commercially or prepared by methods as described in U. S. patent application 10/910,495 filed August 3, 2004, incorporated herein by reference.

[2] = Flammability test ASTM E681-01, lower and upper flammability limit in air (Example 6); format: physicochemical; conditions: 50 percent relative humidity; for LFL: lower flammability limit; for LFL / UFL: ASTM E681-01, 101 kPa (14.7 psia), 100 °C (212 °F); for UFL: upper flammability limit; for flammability: ASTM E681-01, 101 kPa, 100 °C
Experimental: Flammable compounds may be identified by testing under ASTM (American Society of Testing and Materials) E681-01, with an electronic ignition source. Such tests of flammability were conducted on HFC-1234yf, HFC-1225ye and a mixture of the present disclosure at 101 (kPa (14.7 psia), 100 °C (212 °F), and 50 percent relative humidity, at various concentrations in air in order to determine the lower flammability limit (LFL) and upper flammability limit (UFL). The results are given in […]. TABLE 14

CCCCCC[C@H]1C[C@@H](C)OC1=O (relative stereo) [cis-(3-hexyl-5-methyl)dihydrofuran-2-one]
kinematic viscosity [1]: 4.5 centistokes

FC=C(F)C(F)(F)F [HFC-1225ye (100wt%)]
LFL [2]: Non-flammable
UFL [2]: Non-flammable

FC=C(F)C(F)(F)F [HFC-1225ye, 1,2,3,3,3-pentafluoropropene]
flammability [2]: reduces the flammability

C=C(F)C(F)(F)F [HFC-1234yf (100 wt%)]
LFL [2]: 5.0 vol % in air
UFL [2]: 14.5 vol % in air

C=C(F)C(F)(F)F [HFC-1234yf, 2,3,3;3-tetrafluoropropene]
flammability [2]: flammable
